Results as given in ChEMBL document CHEMBL1130790, “Peptidyl human heart chymase inhibitors. 2. Discovery of highly selective difluoromethylene ketone derivatives with Glu at P3 site” (Bioorg Med Chem Lett, 1998).
Where a SMILES comes first, the peptide text is derived from it. The star is where a group is joined. Cbz = O=C(OCc1ccccc1)*

How the values were obtained:
[1] = target: T1, Chymase (Homo sapiens, UniProt P23946); assay: Compound was evaluated for inhibitory activity against human heart chymase (HHC)
T1 sequence (P23946 whole entry): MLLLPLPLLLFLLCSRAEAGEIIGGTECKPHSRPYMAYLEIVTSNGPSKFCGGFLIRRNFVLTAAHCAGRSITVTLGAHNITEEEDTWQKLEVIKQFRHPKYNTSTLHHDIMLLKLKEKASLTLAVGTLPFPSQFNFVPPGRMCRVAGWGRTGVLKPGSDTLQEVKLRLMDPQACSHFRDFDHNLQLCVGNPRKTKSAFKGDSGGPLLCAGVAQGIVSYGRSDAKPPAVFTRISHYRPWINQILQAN

[2] = Selectivity ratio of Bovine chymotrypsin (BCT-Ki) to human heart chymase (HHC-Ki)

SMILES: CC(C)(C)OC(=O)NC(CC(=O)O)C(=O)N1CCC[C@H]1C(=O)NC(Cc1ccccc1)C(=O)C(F)(F)C(=O)Nc1cccc(C(=O)O)c1 (stereo partly specified)
- Ki [1]: 36.6 nM
- Ratio [2]: 2730

SMILES: CC(C)(C)OC(=O)NC(CCC(=O)O)C(=O)N1CCC[C@H]1C(=O)NC(Cc1ccccc1)C(=O)C(F)(F)C(=O)Nc1cccc(S(N)(=O)=O)c1 (stereo partly specified)
- Ki [1]: 27.5 nM
- Ratio [2]: 38

SMILES: CC(C)(C)OC(=O)NC(CCC(=O)O)C(=O)N1CCC[C@H]1C(=O)NC(Cc1ccccc1)C(=O)C(F)(F)C(=O)Nc1cccc(CC(=O)O)c1 (stereo partly specified)
- Ki [1]: 6.7 nM
- Ratio [2]: 590

SMILES: CC(C)(C)OC(=O)NC(CCC(=O)O)C(=O)N1CCC[C@H]1C(=O)NC(Cc1ccccc1)C(=O)C(F)(F)C(=O)Nc1cc(C(=O)O)c2ccccc2c1 (stereo partly specified)
- Ki [1]: 14.2 nM

SMILES: CC(C)(C)OC(=O)NC(CCC(=O)O)C(=O)N1CCC[C@H]1C(=O)NC(Cc1ccccc1)C(=O)C(F)(F)C(=O)Nc1cccc(C(=O)O)c1 (stereo partly specified)
- Ki [1]: 3.9 nM
- Ratio [2]: 332

SMILES: CCCCNS(=O)(=O)c1cccc(NC(=O)C(F)(F)C(=O)C(Cc2ccccc2)NC(=O)[C@@H]2CCCN2C(=O)C(CCC(=O)O)NC(=O)OC(C)(C)C)c1 (stereo partly specified)
- Ki [1]: 22.8 nM

SMILES: CC(C)(C)OC(=O)NC(CCC(=O)O)C(=O)N1CCC[C@H]1C(=O)NC(Cc1ccccc1)C(=O)C(F)(F)C(=O)Nc1cccc(C(N)=O)c1 (stereo partly specified)
- Ki [1]: 21.1 nM
- Ratio [2]: 58

SMILES: CC(C)(C)OC(=O)NC(CCC(=O)O)C(=O)N1CCC[C@H]1C(=O)NC(Cc1ccccc1)C(=O)C(F)(F)C(=O)Nc1cc(C(=O)O)cs1 (stereo partly specified)
- Ki [1]: 6 nM
- Ratio [2]: > 16700

SMILES: CC[C@H](C)[C@H](NC(=O)OCc1ccccc1)C(=O)N[C@@H](CCC(=O)O)C(=O)N1CCC[C@H]1C(=O)N[C@@H](Cc1ccccc1)C(=O)OC (Cbz-IEPF-OMe)
- Ki [1]: 3 nM

SMILES: CC(C)C(NC(=O)OC(C)(C)C)C(=O)N1CCC[C@H]1C(=O)NC(Cc1ccccc1)C(=O)C(F)(F)C(=O)Nc1cccc(C(=O)O)c1 (stereo partly specified)
- Ki [1]: 5.6 nM
